# Experiment: Solubility comparison in common organic solvents
# Format: physicochemical
# Details: qualitative
# Source text: In contrast, phenanthrenes which are structurally analogous but unsubstituted in the 9- and 10-position have distinctly poorer solubility in organic solvents. This leads to considerable problems in the purification, since substantially larger apparatus and distinctly larger amounts of solvent are required for this purpose.
smiles,measurement,value
Cc1ccc(-c2ccc3c(c2)c(C)c(C)c2cc(-c4ccc(C)c5ccccc45)ccc23)c2ccccc12 [Example P1],Solubility in common organic solvents,moderate to good

# Source: patent US8129037B2, “Phenanthrene derivative” (priority 2005, dated 2012)
